In one assay the test system is Her-2 in SkBr3 cells. The experiment in a line: Her-2 depletion in SkBr3 cells (pharmacodynamic marker of cellular efficacy). The format is cell-based. Particulars: Homo sapiens, SK-BR-3; SkBr3 cells treated with the inhibitor overnight; read-out: PD (μM), pharmacodynamic EC50, Her-2 depletion. The procedure:
FIG. 2. Cellular efficacy of pochoximes A1B5C1D1 (IC50). Depletion of Her-2 in SkBr3 cells were treated treated with the inhibitor for 18 h. […]

The next assay concerns the target T1, human HSP90α (Homo sapiens, UniProt P07900).
T1 construct: purchased Stressgen SPP-776F
Nature of the assay: biochemical. The format is binding.

Where [1] appears, read: competition assay, read-out: Measure KD against human HSP90α.

Molecules are shown by their SMILES. Where two headings read alike, the source gives them in different places. A value given as a limit tells only on which side of the number the result lay.

Turning to `CC1CC=CCCC=CC(=NOCC(=O)N2CCCCC2)Cc2cc(O)cc(O)c2C(=O)O1` (stereo not shown) [Compound A1B1C1D1], the EC50 in the assay with Her-2 in SkBr3 cells is not above 5 µM; at human HSP90α it was 34 nM.

As to `C[C@@H]1C/C=C/[C@H](O)C/C=C/C(=NOCC(=O)N2CCCCC2)Cc2c(Cl)c(O)cc(O)c2C(=O)O1` [pochoxime E], at human HSP90α (setting [1]), the Kd was found to be 34 nM.

Regarding `O=C1OCCC=CCCC=CC(=NOCC(=O)N2CCSCC2)Cc2cc(O)cc(O)c21` [Compound A1B1C4D11], the EC50 with Her-2 in SkBr3 cells was not above 0.5 µM; at human HSP90α, 70 nM.

For the molecule `CCN(CC)C(=O)CON=C1C=C(C)CCC=CCC(C)OC(=O)c2c(O)cc(O)cc2C1` (stereo not shown) [Compound A1B3C1D18], the 50% effective concentration (EC50) was not above 1 µM with Her-2 in SkBr3 cells and 200 nM at human HSP90α.

Take `O=C1OCCC=CCCC=CC(=NOCC(=O)N2CC=CC2)Cc2cc(O)cc(O)c21` [Compound A1B1C4D15]: the EC50 with Her-2 in SkBr3 cells was not above 1 µM; at human HSP90α, 128 nM.

Take `CCCC1CC=CCCC(C)=CC(=NOCC(=O)N(CC)CC)Cc2cc(O)cc(O)c2C(=O)O1` (stereo not shown) [Compound A1B3C2D18]: the EC50 was more than 10 µM in the assay on Her-2 in SkBr3 cells and 4660 nM on human HSP90α.

Molecule `O=C1OCCC=CCCC=CC(=NOCC(=O)N2CCCCCC2)Cc2cc(O)cc(O)c21` [Compound A1B1C4D23] returned an EC50 at human HSP90α of 140 nM.

Consider `CCCC1CC=CCCC=CC(=NOCC(=O)N2CCCCC2)Cc2c(Cl)c(O)cc(O)c2C(=O)O1` (stereo not shown) [Compound A2B1C2D1], for which the values for the EC50 in the assay on Her-2 in SkBr3 cells and on human HSP90α were not above 5 µM and 96 nM, respectively.

Consider `C=CC1=CCCC=CC(=NOCC(=O)N2CCCCC2)Cc2c(Cl)c(O)cc(O)c2C(=O)OCC1` [Compound A2B1C8D1], for which the 50% effective concentration (EC50) was not above 1 µM in the assay with Her-2 in SkBr3 cells and 432 nM on human HSP90α.

`CC1CC=CC(NC(=O)CSC2OC(CO)C(O)C(O)C2O)CC=CC(=NOCC(=O)N2CCCCC2)Cc2cc(O)cc(O)c2C(=O)O1` (stereo not shown) [As-14(6-R)]: at human HSP90α (Measure KD against human HSP90α (nM)), the affinity, expressed as Kd, was 90 nM.

In turn, `[N-]=[N+]=NCC1CC=CCCC=CC(=NOCC(=O)N2CCCCC2)Cc2c(Cl)c(O)cc(O)c2C(=O)O1` (stereo not shown) [Compound A2B1C7D1] had an EC50 at human HSP90α of 79 nM.

On human HSP90α, `CC1C=CCC(C)OC(=O)c2c(O)cc(O)cc2CC(=NOCC(=O)N2CCCCC2)C=CC1` (stereo not shown) [Compound A1B4C1D1] showed an EC50 of 32 nM.

Consider `CC1CC=CC(O)CC=CC(=NOCC(=O)N2CCCCC2)Cc2c(Cl)c(O)cc(O)c2C(=O)O1` (stereo not shown) [Compound A2B5C1D1], for which the EC50 on human HSP90α amounted to 10 nM.

At human HSP90α, `CCCC1CC=CC(C)CC=CC(=NOCC(=O)N2CCCCC2)Cc2cc(O)cc(O)c2C(=O)O1` (stereo not shown) [Compound A1B4C2D1] returned an EC50 of 811 nM.

In the case of `CC1CC=CCCC=CC(=NOCC(=O)N2CCCCC2)Cc2c(Cl)c(O)cc(O)c2C(=O)O1` (stereo not shown) [pochoxime D], the Kd on human HSP90α (setting [1]) turned out to be 22 nM.

For the molecule `CCN(CC)C(=O)CON=C1C=CCCC=CCCOC(=O)c2c(O)cc(O)cc2C1` [Compound A1B1C4D18], the concentration for a half-maximal effect (EC50) was not above 1 µM in the assay with Her-2 in SkBr3 cells and 196 nM at human HSP90α.

On to `C[C@@H]1C/C=C/[C@H](N)C/C=C/C(=NOCC(=O)N2CCCCC2)Cc2cc(O)cc(O)c2C(=O)O1` [aminopochoxime E], for which the Kd at human HSP90α (setting [1]) turned out to be 229 nM.

Regarding `O=C1OCCC=CCCC=CC(=NOCC(=O)N2CCC(Cc3ccccc3)CC2)Cc2cc(O)cc(O)c21` [Compound A1B1C4D8], the EC50 in the assay with Her-2 in SkBr3 cells is more than 10 µM; at human HSP90α, 5760 nM.

`CCCC1CC=CC(C)CC=CC(=NOCC(=O)N2CCCCC2)Cc2c(Cl)c(O)cc(O)c2C(=O)O1` (stereo not shown) [Compound A2B4C2D1]: the EC50 in the assay on Her-2 in SkBr3 cells is not above 10 µM; on human HSP90α, 1750 nM.

For the molecule `O=C1NCCC=CCCC=CC(=NOCC(=O)N2CCCCC2)Cc2c(Cl)c(O)cc(O)c21` [Compound A2B1C3D1], the values for the EC50 in the assay with Her-2 in SkBr3 cells and at human HSP90α were not above 1 µM and 198 nM, respectively.

Regarding `CC1CCCN(C(=O)CON=C2C=CCCC=CCCOC(=O)c3c(O)cc(O)cc3C2)C1` (stereo not shown) [Compound A1B1C4D3], the figures for the concentration giving a half-maximal response (EC50) in the assay with Her-2 in SkBr3 cells and at human HSP90α were not above 0.1 µM and 60 nM, respectively.

For the molecule `CC1C=CCCCOC(=O)c2c(O)cc(O)c(Cl)c2CC(=NOCC(=O)N2CCCCC2)C=CC1` (stereo not shown) [Compound A2B4C5D1], the figures for the concentration giving a half-maximal response (EC50) with Her-2 in SkBr3 cells and at human HSP90α were more than 10 µM and 1720 nM, respectively.

Regarding `CCCC1CC=CCCC(C)=CC(=NOCC(=O)N2CCCCC2)Cc2cc(O)cc(O)c2C(=O)O1` (stereo not shown) [Compound A1B3C2D1], the EC50 in the assay on Her-2 in SkBr3 cells was not above 1 µM; on human HSP90α, 196 nM.

`O=C1OCCC=CC(O)CC=CC(=NOCC(=O)N2CCCCC2)Cc2c(Cl)c(O)cc(O)c21` (stereo not shown) [Compound A2B5C4D1] yielded an EC50 on human HSP90α of 18 nM.

As for `O=C1OCCC=CCCC=CC(=NOCC(=O)N2CCNCC2)Cc2cc(O)cc(O)c21` [Compound A1B1C4D12], the EC50 is not above 5 µM in the assay with Her-2 in SkBr3 cells and 640 nM at human HSP90α.

As to `CC1C=CC(C)N1C(=O)CON=C1C=CCCC=CCCOC(=O)c2c(O)cc(O)cc2C1` (stereo not shown) [Compound A1B1C4D16], the EC50 with Her-2 in SkBr3 cells was not above 1 µM; at human HSP90α it was 119 nM.

Take `O=C1OCCC=CCCC=CC(=NOCC(=O)N2CCOCC2)Cc2cc(O)cc(O)c21` [Compound A1B1C4D10]: the concentration giving a half-maximal response (EC50) was not above 0.5 µM with Her-2 in SkBr3 cells and 124 nM at human HSP90α.

As to `CCCN(CCC)C(=O)CON=C1C=CCCC=CCCOC(=O)c2c(O)cc(O)cc2C1` [Compound A1B1C4D25], the EC50 in the assay with Her-2 in SkBr3 cells was not above 1 µM; at human HSP90α it was 116 nM.

As for `O=C(CON=C1C=CCCC=CCCOC(=O)c2c(O)cc(O)cc2C1)NCc1ccccc1` [Compound A1B1C4D22], the EC50 is not above 1 µM in the assay on Her-2 in SkBr3 cells and 57 nM on human HSP90α.

As to `O=C1OCCC=CCCC=CC(=NOCC(=O)N(Cc2ccccc2)Cc2ccccc2)Cc2cc(O)cc(O)c21` [Compound A1B1C4D21], the EC50 with Her-2 in SkBr3 cells is more than 10 µM; on human HSP90α, 2990 nM.

Consider `C[C@@H]1C/C=C/[C@@H](O)C/C=C/C(=NOCC(=O)N2CCCCC2)Cc2c(Cl)c(O)cc(O)c2C(=O)O1` [epi-pochoxime E], for which, on human HSP90α (setting [1]), the Kd is 38 nM.

`CC1CC=CC(N)CC=CC(=NOCC(=O)N2CCCCC2)Cc2cc(O)cc(O)c2C(=O)O1` (stereo not drawn) [epi-aminopochoxime E]: the Kd at human HSP90α (setting [1]) amounted to 34 nM.

As to `CC1CCN(C(=O)CON=C2C=CCCC=CCCOC(=O)c3c(O)cc(O)cc3C2)CC1` [Compound A1B1C4D4], the EC50 in the assay with Her-2 in SkBr3 cells is not above 0.5 µM; at human HSP90α, 70 nM.

For the molecule `COC(=O)CON=C1C=CCCC=CCCOC(=O)c2c(O)cc(O)cc2C1` [Compound A1B1C4D26], the EC50 with Her-2 in SkBr3 cells is not above 10 µM; on human HSP90α, 372 nM.

On to `CC1CC=CCCC=CC(=NOCC(=O)N2CCCCC2)Cc2c(Cl)c(O)cc(O)c2C(=O)O1` (stereo not shown) [Compound A2B1C1D1], for which the EC50 on human HSP90α came to 39 nM.

Consider `CN1CCN(C(=O)CON=C2C=CCCC=CCCOC(=O)c3c(O)cc(O)cc3C2)CC1` [Compound A1B1C4D13], for which, at human HSP90α, the EC50 is more than 10000 nM.

`CC1CC=CC(O)CC=CC(=NOCC(=O)N2CCCCC2)Cc2cc(O)cc(O)c2C(=O)O1` (stereo not shown) [Compound A1B5C1D1] gave an EC50 on human HSP90α of 20 nM.

Regarding `CC(=O)N[C@H]1/C=C/C[C@@H](C)OC(=O)c2c(O)cc(O)cc2CC(=NOCC(=O)N2CCCCC2)/C=C/C1` [As-15(6-R)], on human HSP90α (setting [1]), the Kd was determined as 343 nM.

In the case of `CC1CCCCN1C(=O)CON=C1C=CCCC=CCCOC(=O)c2c(O)cc(O)cc2C1` (stereo not shown) [Compound A1B1C4D2], the EC50 on human HSP90α turned out to be 886 nM.

Turning to `C[C@@H]1C/C=C/[C@@H](O)C/C=C/C(=NOCC(=O)N2CCCCC2)Cc2cc(O)cc(O)c2C(=O)O1` [epi-pochoxime F], the Kd on human HSP90α (setting [1]) is 14 nM.

For the molecule `C[C@@H]1C/C=C/[C@H](O)C/C=C/C(=NOCC(=O)N2CCCCC2)Cc2cc(O)cc(O)c2C(=O)O1` [pochoxime F], the dissociation constant Kd at human HSP90α (setting [1]) was found to be 22 nM.

In turn, `CCN(CC)C(=O)CON=C1C=CCCC=CCC(C)OC(=O)c2c(O)cc(O)cc2C1` (stereo not shown) [Compound A1B1C1D18] had a 50% effective concentration (EC50) on human HSP90α of 540 nM.

The values above are taken from US20150374680A1, “POCHOXIME CONJUGATES USEFUL FOR THE TREATMENT OF HSP90 RELATED PATHOLOGIES” (UNIVERSITE DE STRASBOURG, priority 2010, published 2015).
